Paper PMC9247985, “Accessing Diverse Pyridine-Based Macrocyclic Peptides by a Two-Site Recognition Pathway” (Journal of the American Chemical Society, 2022)
Where a SMILES comes first, the peptide text is derived from it. Where no end group is shown, it is not given here. The star is where a group is joined. 5FAM = O=C1OC2(c3ccc(O)cc3Oc3cc(O)ccc32)c2ccc(C(=O)*)cc21

Assays:
MroD = MroD (Micromonospora rosaria, UniProt A0A136PPB2); conditions: read-out: IC50 MroD; SEM
Method: Competition fluorescence polarization.
peptide, and competitor peptide (concentration is from 20 µM to 100 µM, depending on the experiment).
subsequent wells containing 80 nM MBP-MroB and 5nM labeled ∆12MroA1.
(§1) incubated at room temperat ur e for 10 min, and then fluorescence polarization was measured (Biotek Synergy H4
hybrid reader) using the following filter (Ex: Em – 485 nm / 20 nm: 51 8 nm / 20 nm ).
(§2) to anisotropy value and plotted against peptide concentration, and fitted to dose-response function:
competitor concentration.
(§3) Where: Lt is labeled peptide concentration, y = initial bound/free r at i o of the labeled peptide before adding competitor,
and Kd is the binding constant.
(§4) In cases where competitor concentration wa s not high enough to achieve a plateau, the competition curve was fitted
with minimum anisotropy fixed to be the same value as the anisotropy value of t he free probe solution.
assumed that the labeled peptide was completely displaced from the enzyme binding pocket at a very high
concentration of the competitor.
The specific minimum anisotropy used in this experiment for both MroB and MroD wa s 65.
traces of MroA1 variants binding to MroB.
These peptides were titrated against MBP-MroD (80 nM) complexed with f luorescein-∆12MroA1 (5 nM).
standard deviation (n=3). Errors on Ki and IC50 values are the standard error of the mean generated through regr essi on
polarization traces of MroA1 variants binding to M BP -MroD.
∆12MroA1(5 nM ) . Error bars represent standard deviation (n=3). Errors on Ki a nd IC50 values are the standard error
of the mean generated through regression analysis.

MroB/C = MroB/C dehydration (Dha formation) of in vitro translated MroA2 variants, MALDI-TOF-MS; format: biochemical, Micromonospora rosaria; conditions: Table S6, MroA2 multi-site variants, 2 μM MBP-MroB, 2 μM MBP-MroC, 1 h room temperature
Method: in 2 mM NaOAc pH 5.2, and the concentration was assayed using 260 nm absorbance. This tRNA Glu (CUC) was t he n used in the MroBC-catalyzed dehydration assay.
In vitro translation and enzymati c as s ays (dehydration and cyclization). In a 0.65 mL protein low-binding Eppendorf tube placed on ice, 0.75 μL of purified mroA variant template DNA was mixed with 0.75 μL of Solution B and 1 μL of Solution A of PURExpress I n vi t ro Protein Synthesis Kit (E6800L) purchased from NEB (total volume of reaction is 2.5 μL ). The translation reactions were performed at 37°C for 1 hon an aluminum block.
For a full MroBCD substrate scope investigation, a total translation volume for each variant of 7.5 μL was performed.
1.5 μL of 90 mM i odoacet am i de (IAA) was added to quench d ithiothreitol (DTT) in the translation reaction mixture, a thiol -based nucleophile that can react with electrophilic dehydroalanines generated from MroBC-cat al yzed dehydration assays. […]
In the 6 μL part, 10.2 μL of the enzyme mix containing enzymes and cofactors was added along with 1.8 μ L 90 mM ATP (pH 7.5) ,which wasused to initiate the reaction . The enzyme mix was made by adding these components in the following order: HEPES pH 7.5, MgCl2, glutamate, T. bispora tRNAGl u(CUC), thermostable inorganic pyrophosphatase (TIPP), TEV (L56V/S135G/S219V) (w/w ratio with a total amount of MBP-tagged protein = 1: 10), MBP-MroB, MBP-MroC, and T. bispora GluRS. The enzyme mix was incubated 25 min at room temper at ure before adding to the translation product to facilitate in situ TEV -catalyzed cleavage of MBP from MBP -MroB and MBP - MroC. The enzymatic reaction proceeded for 1 h at room temperature. Overal l , the concentration of components in the 18 μL reaction mix is as follows : 50 mM HEPES pH 7.5, 5 mM MgCl2, gl utamate 1 mM, 3 μM T. bi s por a tRNAGlu, 1 μM T. bispora GluRS, 2 μM MBP-MroB, 2 μM MBP-MroC, […], 0.027 U/μL TIPP, and 5 mM IAA. In addition, the […] was incubated with the same buffer lacking enzymes and tRNA as a translation control.
After incubation, the enzyme reaction (18 μ L) was split into two equal parts. One part was treated with MBP-MroD such that the final concentration of MBP-MroD is 3 μM, and the other part was added the same volume but with buffer lacking MBP-MroD (50 mM HEPES, 300 mM NaCl, 2.5% glycerol, 0.5 mM TCEP).The reaction further proceeded for 1.5 h at room temperature. All reaction mixture was then desalted with solid- phase extraction using Ziptip with 0.6 μL C18 resin (EMD Milli por e ) and crystallized on an MTP384 steel target plate using either sa t ur at e d sina pi c ac i d or 50 mg/mL Super DHB [ dissolved in 60% acetonitrile and 0.1% trifluoroacetic acid (TFA )] as the matrix. T he crystallized spots were then analyzed using MALDI-TOF-MS (Bruker Ultraflex). The external standard for MALDI - TOF-MS analysis is ProteoMass Peptide and Protein MALDI -MS Calibration Kit ( Si g ma ) In this work, TEV was used in every variant tested. […]

MroB = conditions: read-out: IC50 MroB; SEM
Method: Competition fluorescence polarization. The initial sample contained 80 nM enzyme, 5 nM labeled ∆12M r oA1
peptide, and competitor peptide (concentration is from 20 µM to 100 µM, depending on the experiment). In a bl a ck
subsequent wells containing 80 nM MBP-MroB and 5nM labeled ∆12MroA1. The plate was covered from light and
as §1
hybrid reader) using the following filter (Ex: Em – 485 nm / 20 nm: 51 8 nm / 20 nm ). The obtained data was converted
as §2
Where: y = anisotropy value, A1 = minimum anisotropy, A2 = maximum anisotropy, p = Hill’s coefficient, x =
competitor concentration. The obtained IC50 was used to calculate inhibitor constant K I using the following equation: 12 𝐾𝐾𝐾𝐾 = 𝐼𝐼𝐼𝐼50)− 𝐾𝐾𝐾𝐾 ( 𝑦𝑦𝑦𝑦 + 2)
as §3
and Kd is the binding constant.
as §4
with minimum anisotropy fixed to be the same value as the anisotropy value of t he free probe solution. This calculation […]
Competitive fluorescence polarization […]

MBP-MroD = MBP-MroD (Micromonospora rosaria, UniProt A0A136PPB2); experiment: biochemical
Source text: Experiments were done in triplicates. Stock
(1 picture or pasted object on this page, not shown here)

Sequence of MroD (A0A136PPB2 entry or part of it): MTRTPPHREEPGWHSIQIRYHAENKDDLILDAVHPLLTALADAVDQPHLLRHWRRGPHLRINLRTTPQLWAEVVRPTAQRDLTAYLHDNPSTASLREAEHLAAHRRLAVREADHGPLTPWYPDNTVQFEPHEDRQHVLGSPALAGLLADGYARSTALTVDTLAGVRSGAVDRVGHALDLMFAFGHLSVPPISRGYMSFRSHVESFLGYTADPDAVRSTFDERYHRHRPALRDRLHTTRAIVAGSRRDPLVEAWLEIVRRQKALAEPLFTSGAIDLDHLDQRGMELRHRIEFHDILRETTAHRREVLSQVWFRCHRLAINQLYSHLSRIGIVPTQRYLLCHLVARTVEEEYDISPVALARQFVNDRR
Sequence of MBP-MroD (A0A136PPB2 1-366): as the sequence (A0A136PPB2 entry or part of it) above

| Compound | IC50 (MroD) [nM] | Dha formation (MroB/C) | also measured |
| --- | --- | --- | --- |
| SDLDIVDLDLAVDEELAALSVGGLGNTEVGA [Δ12MroA1 leader] | 16000 ± 4400 |  |  |
| SGIAKEVRSWLI [47-Q8R, Arg variant of multi-site variant 47] |  | 2 Dha |  |
| SGYHFHNRSWLI [54-V8R, Arg variant of multi-site variant 54] |  | 2 Dha |  |
| CC[C@H](C)[C@H](NC(=O)[C@H](CC(=O)O)NC(=O)[C@H](CC(C)C)NC(=O)[C@H](CC(=O)O)NC(=O)[C@@H](N)CO)C(=O)N[C@H](C(=O)N[C@@H](CC(=O)O)C(=O)N[C@@H](CC(C)C)C(=O)N[C@@H](CC(=O)O)C(=O)N[C@@H](CC(C)C)C(=O)N[C@@H](C)C(=O)N[C@H](C(=O)N[C@@H](CC(=O)O)C(=O)N[C@@H](CCC(=O)O)C(=O)N[C@@H](CCC(=O)O)C(=O)N[C@@H](CC(C)C)C(=O)N[C@@H](C)C(=O)N[C@@H](C)C(=O)N[C@@H](CC(C)C)C(=O)N[C@@H](CO)C(=O)N[C@H](C(=O)NCC(=O)NCC(=O)N[C@@H](CC(C)C)C(=O)NCC(=O)N[C@@H](CC(N)=O)C(=O)N[C@H](C(=O)N[C@@H](CCC(=O)O)C(=O)N[C@H](C(=O)NCC(=O)N[C@@H](C)C(=O)N[C@@H](CO)C(=O)NCC(=O)N[C@@H](Cc1c[nH]c2ccccc12)C(=O)N[C@@H](CC(C)C)C(=O)NCC(=O)N[C@@H](CO)C(=O)N[C@@H](Cc1c[nH]c2ccccc12)C(=O)N[C@H](C(=O)N[C@H](C(=O)OC)[C@@H](C)CC)C(C)C)C(C)C)[C@@H](C)O)C(C)C)C(C)C)C(C)C [Δ12MroA1-COOMe] (H-SDLDIVDLDLAVDEELAALSVGGLGNTEVGASGWLGSWVI-OMe) | 400 ± 60 |  | IC50 (MroB): 4200 ± 1700 nM |
| SDLDIVDLDLAVDEELAALSVGGLGNTEVGASGWLGSGVI [Δ12MroA1-W7G] | 2400 ± 300 |  |  |
| CC[C@H](C)[C@H](NC(=O)[C@@H](NC(=O)[C@H](Cc1c[nH]c2ccccc12)NC(=O)[C@H](CO)NC(=O)CNC(=O)[C@H](CC(C)C)NC(=O)[C@H](Cc1c[nH]c2ccccc12)NC(=O)CNC(=O)[C@H](CO)NC(=O)[C@H](C)NC(=O)CNC(=O)[C@@H](NC(=O)[C@H](CCC(=O)O)NC(=O)[C@@H](NC(=O)[C@H](CC(N)=O)NC(=O)CNC(=O)[C@H](CC(C)C)NC(=O)CNC(=O)CNC(=O)[C@@H](NC(=O)[C@H](CO)NC(=O)[C@H](CC(C)C)NC(=O)[C@H](C)NC(=O)[C@H](C)NC(=O)[C@H](CC(C)C)NC(=O)[C@H](CCC(=O)O)NC(=O)[C@H](CCC(=O)O)NC(=O)[C@H](CC(=O)O)NC(=O)[C@@H](NC(=O)[C@H](C)NC(=O)[C@H](CC(C)C)NC(=O)[C@H](CC(=O)O)NC(=O)[C@H](CC(C)C)NC(=O)[C@H](CC(=O)O)NC(=O)[C@@H](NC(=O)[C@@H](NC(=O)[C@H](CC(=O)O)NC(=O)[C@H](CC(C)C)NC(=O)[C@H](CC(=O)O)NC(=O)[C@H](CO)NC(=O)c1ccc2c(c1)C(=O)OC21c2ccc(O)cc2Oc2cc(O)ccc21)[C@@H](C)CC)C(C)C)C(C)C)C(C)C)[C@@H](C)O)C(C)C)C(C)C)C(=O)O [fluorescein-Δ12MroA1] (5FAM-SDLDIVDLDLAVDEELAALSVGGLGNTEVGASGWLGSWVI-OH) |  |  | Kd (MBP-MroD): ~12 nM |
| SGLQHGKRSWLI [52-Y8R, Arg variant of multi-site variant 52] |  | 2 Dha |  |
| SDLDIVDLDLAVDEELAALSVGGLGNTEVGASGWLGSWGI [Δ12MroA1-V8G] | 1700 ± 400 |  |  |
| SGKALERSWLI [29-F7R, Arg variant of multi-site variant 29] |  | M ix of 1, 2 Dha |  |
| SGRYAGRSWLI [39-W7R, Arg variant of multi-site variant 39] |  | 2 Dha |  |
| SGDAMRWRSWLI [53-A8R, Arg variant of multi-site variant 53] |  | 2 Dha |  |
| SGREFARSWLI [35-N7R, Arg variant of multi-site variant 35] |  | 2 Dha |  |
| SGQGRNRSWLI [24-V7R, Arg variant of multi-site variant 24] |  | 2 Dha |  |
| SDLDIVDLDLAVDEELAALSVGGLGNTEVGASGWLGSWVI [Δ12MroA1] | 90 ± 20 |  |  |
| SGYDRQRSWLI [56-Y7R, Arg variant of multi-site variant 56] |  | 2 Dha |  |
| SGGYRPRSWLI [38-H7R, Arg variant of multi-site variant 38] |  | 2 Dha |  |
| SGHYKPQRSWLI [55-A8R, Arg variant of multi-site variant 55] |  | 2 Dha |  |
| SDLDIVDLDLAVDEELAALSVGGLGNTEVGASGWLGSWVG [Δ12MroA1-I9G] | 910 ± 90 |  |  |
